From US8258290B2, “Glycomimetic inhibitors of the PA-IL lectin, PA-IIL lectin or both the lectins from pseudomonas” (priority 2005, dated 2012)

Columns and labels:
PA-IIL lectin = biological target: T1, PA-IIL lectin (Pseudomonas aeruginosa, UniProt Q9HYN5); assay: Assay for PA-IIL antagonist activity (plate-coated PA-IIL, fucose-PAA-biotin/streptavidin-HRP competition); assay type: binding; conditions: for inhibition of the PA-IIL lectin: FIG. 6
T1 construct: Dr. Wimmerova, Masaryk University, Brno, Czech Republic
T1 sequence (Q9HYN5 entry or part of it): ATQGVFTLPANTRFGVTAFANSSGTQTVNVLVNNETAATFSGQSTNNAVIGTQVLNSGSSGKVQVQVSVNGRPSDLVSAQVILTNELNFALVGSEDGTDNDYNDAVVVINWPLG
Description: Wells of a microtiter plate (plate 1) are coated with PA-IIL (Dr. Wimmerova, Masaryk University, Brno, Czech Republic) by incubation for 2 hrs at 37° C. The wells are then blocked for 2 hrs by the addition of 1% bovine serum albumin (BSA) diluted in TBS-Ca (50 mM TrisHCl, 150 mM NaCl, 2 mM CaCl2 pH 7.4) mixed 1:1 v/v with Stabilcoat (Surmodics, Eden Prairie, Minn.). In a second low-binding round-bottom microtiter plate (plate 2), test antagonists are serial diluted in 1% BSA in TBS-Ca/Stabilcoat (60 μl/well). […] Plate 1 is then washed with TBS-Ca and 100 μl/well are transferred from plate 2 to plate 1. After incubation at room temperature for 2 hrs, plate 1 is washed and 100 μl of TMB reagent (KPL Labs, Gaithersburg, Md.) is added to each well. After incubation for 5 minutes at room temperature, the reaction is stopped by adding 100 μl/well of 1M H3PO4 and the absorbance of light at 450 nm is determined by a microtiter plate reader.

PA-IL lectin = biological target: T2, PA-IL lectin (Pseudomonas aeruginosa, UniProt Q05097); assay: Assay for PA-IL antagonist activity (plate-coated PA-IL, α-galactose-PAA-biotin/streptavidin-HRP competition); assay type: binding; conditions: for inhibition of PA-IL lectin: FIG. 5
T2 construct: purchased Sigma-Aldrich, St. Louis, Mo
T2 sequence (Q05097 whole entry): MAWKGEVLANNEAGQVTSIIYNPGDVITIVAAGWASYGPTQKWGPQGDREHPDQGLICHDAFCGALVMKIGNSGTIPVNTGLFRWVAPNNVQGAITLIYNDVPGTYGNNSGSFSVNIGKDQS
Description: Wells of a microtiter plate (plate 1) are coated with PA-IL (Sigma-Aldrich, St. Louis, Mo.) by incubation for 2 hrs at 37° C. The wells are then blocked for 2 hrs by the addition of 1% bovine serum albumin (BSA) diluted in TBS-Ca (50 mM TrisHCl, 150 mM NaCl, 2 mM CaCl2 pH 7.4) mixed 1:1 v/v with Stabilcoat (Surmodics, Eden Prairie, Minn.). In a second low-binding round-bottom microtiter plate (plate 2), test antagonists are serial diluted in 1% BSA in TBS-Ca/Stabilcoat (60 μl/well). Preformed conjugates of α-galactose-PAA-biotin (GlycoTech Corp, Gaithersburg, Md.) mixed with streptavidin-HRP (KPL Labs, Gaithersburg, Md.) are added to each well of plate 2 (60 μl/well of 2 μg/ml). Plate 1 is then washed with TBS-Ca and 100 μl/well are transferred from plate 2 to plate 1. After incubation at room temperature for 2 hrs, plate 1 is washed and 100 μl of TMB reagent (KPL Labs, Gaithersburg, Md.) is added to each well. After incubation for 5 minutes at room temperature, the reaction is stopped by adding 100 μl/well of 1M H3PO4 and the absorbance of light at 450 nm is determined by a microtiter plate reader.

[1] = biological target: PA-IIL binding to human epithelial cells (Pseudomonas aeruginosa, UniProt Q9HYN5); assay: Inhibition of PA-IIL lectin binding to human buccal epithelial cells (flow cytometry); assay type: cell-based; conditions: FIG. 9A-9F, biotinylated PA-IIL, fluorescein-labeled streptavidin, FACS
PA-IIL binding to human epithelial cells, sequence (Q9HYN5 entry or part of it): as the sequence (Q9HYN5 entry or part of it) above
Description: FIG. 9A-9F illustrates the inhibition of PA-IIL binding to human epithelial cells. Human buccal epithelial cells are incubated with biotinylated PA-IIL lectin followed by detection of bound lectin with fluorescein-labeled streptavidin. Fluorescently labeled cells are quantified by fluorescent-activated cell sorting (FIG. 9B).
Obtain sample of buccal cells by scraping inside of cheek and collecting in 2 mis PBS. Spin cells at 400 g for 7 minutes to generate cell pellet. Discard supernatant. Resuspend in cold TBS-Ca (50 mM TrisHCl, 150 mM NaCl, 2 mM CaCl2 pH 7.4) to cell concentration of 10^6 cells/ml. Aliquot 0.1 ml to each tube. Add biotinylated PA-I or PA-II to tubes (5μ/well of 1.0 mg/ml lectin). Add inhibitors to tubes (5 μl at desired concentration). Incubate on ice for 30 minutes. Wash cells once by adding 400 μl of cold TBS-Ca to each tube and spinning at 400 g for 7 minutes. Discard supernatant. Resuspend cells in 100 μl of cold TBS-Ca. Add streptavidin-FITC (2 μl/tube of 1 mg/ml, KPL Labs, Gaithersburg, Md.). Incubate 30 minutes on ice. Wash cells once by adding 400 μl of cold TBS-Ca to each tube and spinning at 400 g for 7 minutes. Discard supernatant. Resuspend cells in 500 μl of cold TBS-Ca. Analyze in flow cytometer.

Compound | inhibition of the PA-IIL lectin (PA-IIL lectin; qualitative) | inhibition of PA-IIL in IC50 determination (PA-IIL lectin; FIG. 8, qualitative) | inhibition of PA-IL lectin (PA-IL lectin; qualitative) | inhibition of PA-IIL binding to human epithelial cells [1] | inhibition of PA-IL in IC50 determination (PA-IL lectin; FIG. 7, qualitative) | inhibition of PA-IIL relative to fucose (from IC50 determination) (PA-IIL lectin; FIG. 8, times better than fucose) | inhibition of PA-IL relative to galactose (from IC50 determination) (PA-IL lectin; FIG. 7, times better than galactose)
O=C[C@H](O)[C@@H](O)[C@@H](O)[C@H](O)CO [galactose] | not | inactive | inhibited | no effect |  |  | 
C[C@H](O)[C@@H](O)[C@@H](O)[C@H](O)C=O [fucose] |  |  | not |  | inactive |  | 
OC[C@H]1O[C@H](OCC2O[C@@H](O)[C@H](O)[C@@H](O)[C@@H]2O)[C@H](O)[C@@H](O)[C@H]1O (stereo partly drawn) [Melibiose, Melibiose (Galα1-6Gal)] |  |  | inhibited |  |  |  | 
CC1OC(OC2C(CO)OCCC2OC2OC(CO)C(O)C(OC3OC(CO)C(O)C(O)C3O)C2O)C(O)C(O)C1O (stereo not drawn) [Glycomimetic 1] | inhibited |  | inhibited | inhibits binding |  | 4 to 5 times | 4 to 5 times
